By melting point is commonly meant the temperature of the solid-liquid transition.

Bounds are passed on as bounds.

The source of these data is a melting point compilation (Tetko et al.; mined from patent text by program, amines drawn as free bases though some values may be those of a salt).

The molecule `CC(C)(C)C1=NN(c2ccc(S(=O)(=O)O)cc2)C(c2ccc(F)cc2)C1` (configuration not stated) yielded a melting point of 92.9 °C.
For the molecule `CNc1c([N+](=O)[O-])ccc(Sc2ccccc2)c1Cl`, the melting point was determined as 79 °C.
On to `O=[N+]([O-])c1ccc(C2SCCS2)cc1`, for which the melting point is 80 to 82 °C.
For `Cc1ccc(S(=O)(=O)OCC2CC(=O)N(Cc3ccccc3)C2c2c(Cl)cccc2Cl)cc1` (configuration not stated) the value was 110 to 114 °C.
As to `CCC(=O)N1CCC[C@H]1C(=O)O`, the melting point was in the range of 98 to 99 °C.
With `CCCCCS(=O)(=O)NC(=O)CCCCc1cc(OCCCC)nn1Cc1ccc(Cl)cc1Cl`, the melting point lay in the range of 91 to 93 °C.
For the molecule `NS(=O)(=O)c1cccc(-c2cccc(-c3nc(-c4ccc(F)c(F)c4)cc(C(F)(F)F)n3)c2)c1`, the melting point was 211 °C.
With `O=C(O)C=Cc1ccc2cc[nH]c2c1`, the melting point lay within 215 to 217 °C.
`CCOC(=O)OCCn1nc(-c2cc(C(C)(C)C)c(O)c(C(C)(C)C)c2)c2ccc(C)nc21` displayed a melting point of 145 to 146 °C.
As for `O=C(O)c1cn(C2CC2)c2c(F)c(N3CCC(n4cc(-c5ccccc5)nn4)C3)c(F)cc2c1=O` (configuration not stated), the melting point came to 241 °C.
Regarding `Cc1oc(-c2ccco2)nc1CCc1ccc(CCCCC2OC(=O)NC2=O)cc1` (configuration not stated), the melting point lay in the range of 140 to 141 °C.
`CCCCCC(O)C=CC1C(O)CC(O)C1CCCCCCC(=O)O` (configuration not stated) displayed a melting point of 98 to 100 °C.
The value for `O=S(=O)(c1cccc(-c2cc(-c3nc(-c4ccc(C(F)(F)F)cc4)cc(C(F)(F)F)n3)ccn2)c1)N(CCO)CCO` was 186 °C; that for `O=C(O)CCc1nc(-c2cc3ccccc3o2)no1` was 154 to 155 °C.
On to `CC(C)c1cc(-c2ccc(F)cc2)c(OCc2ccccc2)c(C(C)C)c1`, for which the melting point lay in the range of 65 to 67 °C.
The value for `O=c1[nH]c2c(c3ccccc13)c1cc(Cl)ccc1n2CC1CC1` was greater than 300 °C; that for `COc1ccc2c(c1)c(-c1cc3nccnc3[nH]1)cn2CCO` was 270 to 273 °C.
The value for `CC(=O)Oc1ccc(C(=O)Nc2cccc(OCc3cncc4ccccc34)c2)cc1C(C)(C)C` was 83 to 86 °C.
`CS(=O)(=O)c1ccc2c([N+](=O)[O-])cc3c(c2c1)C(CCl)CN3` (configuration not stated) came in with a melting point of 193 to 194 °C.
In turn, `CCOc1nc(SC)nc(N2CCS(=O)CC2)c1[N+](=O)[O-]` registered a melting point of 102 to 104 °C.
For `CCCC1(CCC)Oc2c(ccc(O)c2C(C)=O)-c2ccccc21` the value was 83 to 83.5 °C; for `CCNC(=O)c1nc2cc(NC(=O)c3c(C(=O)N4CCC4)cnn3C)ccn2n1`, 217 to 229 °C; for `CC(=O)OC1CSC(Oc2ccnc(-c3ccncc3)c2)C(OC(C)=O)C1OC(C)=O` (configuration not stated), 185 °C.
On to `CS(=O)c1cc2n(c1C(=O)c1ccc(Br)cc1)CCC2C(=O)O` (configuration not stated), for which the melting point was in the range of 226 to 227 °C.
Consider `CCOC(=N)c1c(O)ccc2ccccc12`, for which the melting point lay in the range of 145 to 146 °C.
The value for `OCCC(CCO)c1ccccn1` was 44 °C.
Turning to `COC(=O)c1[nH]c2c(C)ccc(C)c2c1Cl`, the melting point lay within 115 to 116 °C.
`COC(=O)c1ccc(OCC2CCCCC2)cc1` came in with a melting point of 62 to 63 °C.
In turn, `COc1cc(Nc2c(C#N)cnc3cc(-c4ccc(C5OCCCO5)o4)ccc23)c(Cl)cc1Cl` yielded a melting point of 224 to 229 °C.
For `C[C@@H](S[C@H]1CO[C@H](c2ccc(C(=O)Nc3nc4ccccc4s3)cc2)OC1)[C@](O)(Cn1cncn1)c1ccc(F)cc1F` the value was 107 °C; for `Cc1ccc(CC(C)NCC(O)c2ccccc2)cc1` (configuration not stated), 74 to 94 °C.
Turning to `CC[C@@H]1O[C@](C#CC2CC2)(C(F)(F)F)c2c(ccc(F)c2F)NC1=O` (relative stereo), the melting point lay in the range of 180 to 181 °C.
The value for `CNC(=O)[C@H]1S[C@@H](n2cnc3c(NC)nc(Cl)nc32)[C@H](O)[C@@H]1O` was 130 to 141 °C; that for `Cc1cc(-c2c(-c3ccc(S(C)(=O)=O)cc3)cnn(-c3ccc(F)c(F)c3)c2=O)ccc1F` was 166 to 168 °C.
On to `C[C@@H]1CN(c2cccc(-c3cn[nH]c3N)c2)C[C@H](C)O1`, for which the melting point was 158 to 160 °C.
For `COc1cc(CCCC2OC(=O)NC2=O)cc(OC)c1OCc1coc(/C=C/c2ccccc2)n1` (configuration not stated), the melting point lay in the range of 94 to 95 °C.
For `COc1ccc(S(=O)(=O)Nc2cccc3c2Nc2ccccc2S3)cc1` the value was 158 to 160 °C; for `O=C/C(=C/c1ccc(Cl)cc1Cl)c1ccc(Cl)cc1`, 106 to 109 °C; for `Cc1c(F)c(F)cc(C(=O)O)c1Cl`, 121 to 122 °C.
The value for `CC(C)(C)c1cc(P(c2ccccc2)c2cc(C(C)(C)C)c(O)c(C(C)(C)C)c2)cc(C(C)(C)C)c1O` was 138 to 140 °C.
The molecule `COc1cc(Cc2cnc(NCCSCc3nc[nH]c3C)[nH]c2=O)ccn1` returned a melting point of 177 to 178 °C.
Consider `NC(=O)Cn1c(-c2ccccc2)nc2cccnc21`, for which the melting point is 226 to 227 °C.
The molecule `O=C(O)CCCCc1ccc(CCNS(=O)(=O)c2ccc(Cl)cc2)cc1` had a melting point of 118 to 120 °C.
For `CCOC(=O)c1ccc(NC(=O)C=C(c2ccc(Cl)cc2)c2ccc(Cl)cc2)cc1` the value was 207 to 209 °C; for `CON=C(c1ccccc1COc1ccc(Cl)cc1)c1ncnn1C`, 113 to 114 °C; for `Cc1c(NC(=O)C(CSC(=O)C2CCCCC2)Cc2ccccc2)cccc1C(=O)O` (configuration not stated), 117 to 120 °C.
The value for `Cc1[nH]c(=O)ccc1-c1ccccc1` was 201 to 208 °C; that for `CC(C)(C)C(CSC(F)F)=NO` was 92 to 95 °C.
For `COC(C)CN(C)CC=CC(=O)Nc1cc2c(Nc3ccc(F)c(Cl)c3)ncnc2cc1OCC1CC1` (configuration not stated) the value was 123 to 125 °C.
The molecule `Cc1cccc(-c2nc(-c3ccc(S(C)(=O)=O)cc3)sc2-c2ccnc(Sc3ccccc3)c2)c1` registered a melting point of 116 to 118 °C.
For `O=C1CCC2=C(CCc3cc(Cl)cc(Cl)c32)N1` the value was 212 to 214 °C; for `Cc1ccc(S(=O)(=O)Oc2c(Cl)cc(C3=NNC(=O)CC3)cc2Cl)cc1`, 208 to 209 °C; for `CCCCCCCNC(=O)Nc1cc(N(C)C)ccc1C(=O)NC1CCN(C(c2ccccc2)c2ccccc2)CC1`, 87 °C.
Molecule `CCCCNS(=O)(=O)c1ccc(N2CCC(NC[C@H](O)COc3cccc4[nH]c(=O)[nH]c34)CC2)cc1` returned a melting point of 69 to 75 °C.
`CN1Cc2c(C#CC3CC3)ncn2-c2cccc(Cl)c2C1=O`: the melting point is 177 to 178 °C.
With `O=C(Nc1cccc(CC(=O)OCc2ccccc2)c1)NC1C(=O)N(CC(=O)N2CCCC2)c2ccccc2N(c2ccccc2F)C1=O` (configuration not stated), the melting point fell in the range of 104 to 106 °C.
For `O=S(=O)(c1ccc(Cl)cc1)N1CCC2(C=Cc3ccccc32)CC1` the value was 179 to 181 °C; for `CCc1nc(N)nc(N)c1N1CCN(Cc2ccccc2)CC1`, 174 to 175 °C; for `O=C(NCCc1ccccc1Cl)C1CCCCC1`, 93.5 to 93.9 °C.
As for `CC(C)Oc1c(C(N)=O)oc2ccc(OCc3ccccc3)cc12`, the melting point was in the range of 158 to 160 °C.
`O=C(Nc1ccc(C(F)(F)F)cc1)[C@H]1[C@H](c2ccccc2)C12CCCC2` (relative stereo) yielded a melting point of 171 to 173 °C.
For the molecule `N#CC1=C(C#N)SC(c2ccccc2)CS1` (configuration not stated), the melting point lay within 122 to 124 °C.
The value for `CC1C(=O)N(c2ccccc2)C(=S)N1Cc1ccc(Oc2ccccc2)cc1` (configuration not stated) was 122 °C; that for `COC1(c2ccccc2)C=CC(=O)C=C1` was 89 °C.
The value for `COc1ccc(OCCCC2CCN(c3ccc(Cl)nn3)CC2)c(Cl)c1` was 101 °C; that for `CCn1ncnc1COc1nc2c(cc1C(C)(C)C)nnn2-c1ccccc1F` was 117 to 120 °C; that for `CCCOc1ccc2c(c1)C(c1ccc(OC)cc1OCC(=O)O)C(CN)C2c1ccc2c(c1)OCO2` (configuration not stated) was 237 to 242 °C.
For `CCCCc1nc(SC)c(Br)n1Cc1ccc(-c2ccccc2S(=O)(=O)N=CN(C)C)cc1` the value was 158 °C.
In the case of `CCOC(CC)=NS(=O)(=O)c1nc(-c2ccccc2)ns1`, the melting point was in the range of 98 to 100 °C.
The value for `CC(C)(C(=O)O)c1nc2ccc(OCCCN3CCN(C(c4ccccc4)c4ccccc4)CC3)nn2c1Cl` was 118 to 121 °C.
In turn, `CC(=O)Nc1ccc(C(=O)O)c2c1OCCO2` returned a melting point of 233 °C.
For `COc1ccc(-c2csc(N)n2)cc1OC` the value was 198 to 201 °C.
`CCCCc1nc(Cl)c(CO)n1Cc1ccc(-c2ccccc2-c2nc(=O)o[nH]2)cc1` returned a melting point of 202 to 205 °C.
For `CC(=O)c1c(C)[nH]c(-c2ccccc2C)c1N` the value was 258 °C; for `CCOC(=O)c1cnc2sc(SCc3ccccc3)nn2c1=O`, 129 to 132 °C.
The value for `NCc1nc(-c2ncn3c2[C@@H]2CCN2C(=O)c2sccc2-3)no1` was 235 to 238 °C; that for `Cc1cc(C)nc(SCc2nccc(SCCCSc3ccc4ncc([N+](=O)[O-])n4n3)c2C)n1` was 145 to 147 °C.
The value for `O=C(O)[C@@H]1CCCC[C@H]1C(=O)CS` (relative stereo) was 112 to 117 °C; that for `CC(C)(/C=C/Br)C(=O)O` was 30 °C; that for `CON=Cc1c[nH]c(-c2ccc(F)cc2)c1-c1ccncc1` was 242 to 248 °C.
`CC(=O)Nc1cc(Cl)c(O)c(Cl)c1` gave a melting point of 151 to 152 °C.
For `CCCCCc1cc2c(=O)oc(C(=O)OCC)nc2s1` the value was 69.6 to 70.5 °C; for `CCCNC1CN(C(=O)Nc2ccc(C(F)(F)F)cc2)N=C1c1ccc(OC(F)F)c(C)c1` (configuration not stated), 90 to 92 °C.
For `NNc1cnc(-c2ccccc2)cn1` the value was 98 to 99 °C; for `COc1ccc(Cc2cccc(C(Cl)(C3=NCCCN3)c3ccccc3)c2)cc1` (configuration not stated), 125 °C.
For `CCN1CCN(C2=Nc3cc(Cl)ccc3Oc3ccccc32)CC1` the value was 100 to 101 °C.
The molecule `NC(=O)c1nnn(Cc2cc(Cl)c(C(=O)c3ccc(Cl)cc3)c(Cl)c2)c1N` had a melting point of 198 to 200 °C.
